What follows are molecules tested against BCL2 (Homo sapiens (Human), UniProt P10415) (assay: Molecular level activity test of anti-apoptotic protein BCL2 (HTRF, binding to Bim peptide)). Conditions: HTRF, binding of BCL2 to Bim peptide; read-out: BCL2 nM (inhibitory activity, IC50).
In short: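 Step one: compound, supplied in 2% DMSO, is mixed with His-tagged BCL2 and biotinylated Bim peptide and reacted for 1 h. Step two: anti-His and streptavidin-XL665 reagents in detection buffer are added. Step three: after a 4 h room-temperature incubation, time-resolved fluorescence is measured.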

Chain of BCL2 (P10415 whole entry): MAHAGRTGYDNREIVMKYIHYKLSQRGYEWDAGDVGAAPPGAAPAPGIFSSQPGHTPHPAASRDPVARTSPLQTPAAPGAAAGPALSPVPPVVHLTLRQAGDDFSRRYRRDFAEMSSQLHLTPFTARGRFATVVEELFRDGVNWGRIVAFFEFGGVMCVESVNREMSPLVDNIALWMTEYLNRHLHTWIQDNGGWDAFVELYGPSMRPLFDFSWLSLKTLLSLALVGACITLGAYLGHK

Row | IC50 [nM] | SMILES
1 | < 10 | CC(C)c1ccccc1[C@@H]1CCCN1C1CC2(CCN(c3ccc(C(=O)NS(=O)(=O)c4cc([N+](=O)[O-])c(NCC5(F)CCOCC5)c5[nH]cnc45)c(N4CCCOc5nc6[nH]ccc6cc54)c3)CC2)C1 [compound 088, (S)-2-(3,4-dihydro-2H-pyrrolo[3′,2′:5,6]pyridino[2,3-b][1,4]oxazacyclohept-1 (7H)-yl)-N-((7-(((4-fluorotetrahydro-2H-pyran-4-yl)methyl)amino)-6-nitro-1H-benzo[d]imidazol-4-yl)sulfonyl)-4-(2-(2-(2-isopropylphenyl)pyrrolidin-1-yl)-7-azaspiro[3.5]non-7-yl)benzamide]
2 | < 10 | COc1ccc(CN2CCN(C3CC4(CCN(c5ccc(C(=O)NS(=O)(=O)c6cc([N+](=O)[O-])c(NC[C@H]7CC[C@](C)(O)CC7)c7[nH]cnc67)c(N6CCCOc7nc8[nH]ccc8cc76)c5)CC4)C3)C(c3ccccc3C(C)C)C2)cc1 (stereo partly drawn) [compound 090, 2-(3,4-dihydro-2H-pyrrolo[3′,2′:5,6]pyridino[2,3-b][1,4]oxazacyclohept-1 (7H)-yl)-N-((7-((((1r,4r)-4-hydroxy-4-methylcyclohexyl)methyl)amino)-6-nitro-1H-benzo[d]imidazol-4-yl)sulfonyl)-4-(2-(2-(2-isopropylphenyl)-4-(4-methoxybenzyl)piperazin-1-yl)-7-azaspiro[3.5]non-7-yl)benzamide]
3 | < 10 | COc1ccc(CN2CCN(C3CC4(CCN(c5ccc(C(=O)NS(=O)(=O)c6cc([N+](=O)[O-])c(NCC7CCOCC7)c7[nH]cnc67)c(N6CCOc7nc8[nH]ccc8cc76)c5)CC4)C3)C(c3ccccc3C(C)C)C2)cc1 (stereo not drawn) [compound 091, 2-(2,3-dihydropyrrolo[3′,2′:5,6]pyridino[2,3-b][1,4]oxazin-1 (6H)-yl)-4-(2-(2-(2-isopropylphenyl)-4-(4-methoxybenzyl)piperazin-1-yl)-7-azaspiro[3.5]non-7-yl)-N-((6-nitro-7-(((tetrahydro-2H-pyran-4-yl)methyl)amino)-1H-benzo[d]imidazol-4-yl)sulfonyl)benzamide]
4 | < 10 | COc1ccc(CN2CCN(C3CC4(CCN(c5ccc(C(=O)NS(=O)(=O)c6cc([N+](=O)[O-])c(NCC7CCOCC7)c7[nH]cnc67)c(N6CCCOc7nc8[nH]ccc8cc76)c5)CC4)C3)C(c3ccccc3C(C)C)C2)cc1 (stereo not drawn) [compound 092, 2-(3,4-dihydro-2H-pyrrolo[3′,2′:5,6]pyridino[2,3-b][1,4]oxazacyclohept-1 (7H)-yl)-4-(2-(2-(2-isopropylphenyl)-4-(4-methoxybenzyl)piperazin-1-yl)-7-azaspiro[3.5]non-7-yl)-N-((6-nitro-7-(((tetrahydro-2H-pyran-4-yl)methyl)amino)-1H benzo[d]imidazol-4-yl)sulfonyl)benzamide]
5 | < 10 | COc1ccc(CN2CCN(C3CC4(CCN(c5ccc(C(=O)NS(=O)(=O)c6cc([N+](=O)[O-])c(NCC7(F)CCOCC7)c7[nH]cnc67)c(N6CCOc7nc8[nH]ccc8cc76)c5)CC4)C3)C(c3ccccc3C(C)C)C2)cc1 (stereo not drawn) [compound 093, 2-(2,3-dihydropyrrolo[3′,2′:5,6]pyridino[2,3-b][1,4]oxazin-1 (6H)-yl)-N-((7-(((4-fluorotetrahydro-2H-pyran-4-yl)methyl)amino)-6-nitro-1H-benzo[d]imidazol-4-yl)sulfonyl)-4-(2-(2-(2-isopropylphenyl)-4-(4-methoxybenzyl)piperazin-1-yl)-7-azaspiro[3.5]non-7-yl)benzamide]
6 | < 10 | COc1ccc(CN2CCN(C3CC4(CCN(c5ccc(C(=O)NS(=O)(=O)c6cc([N+](=O)[O-])c(NCC7(F)CCOCC7)c7[nH]cnc67)c(N6CCCOc7nc8[nH]ccc8cc76)c5)CC4)C3)C(c3ccccc3C(C)C)C2)cc1 (stereo not drawn) [compound 094, 2-(3,4-dihydro-2H-pyrrolo[3′,2′:5,6]pyridino[2,3-b][1,4]oxazacycloheptane-1 (7H)-yl)-N-((7-(((4-fluorotetrahydro-2H-pyran-4-yl)methyl)amino)-6-nitro-1H-benzo[d]imidazol-4-yl)sulfonyl)-4-(2-(2-(2-isopropylphenyl)-4-(4-methoxybenzyl)piperazin-1-yl)-7-azaspiro[3.5]non-7-yl)benzamide]
7 | < 10 | CC(C)c1ccccc1[C@@H]1CCCN1C1CC2(CCN(c3cc(Oc4cnc5[nH]ccc5c4)c(C(=O)NS(=O)(=O)c4cc([N+](=O)[O-])c(NC[C@H]5CC[C@](C)(O)CC5)c5ocnc45)cc3F)CC2)C1 [compound 097, 2-((1H-pyrrolo[2,3-b]pyrid-5-yl)oxy)-5-fluoro-N-((7-((((1r, 4r)-4-hydroxy-4-methylcyclohexyl)methyl)amino)-6-nitrobenzo[d]oxazol-4-yl)sulfonyl)-4-(2-((S)-2-(2-isopropylphenyl)pyrrolidin-1-yl)-7-azaspiro[3.5]non-7-yl)benzamide]
8 | < 10 | CC(C)c1ccccc1[C@@H]1CCCN1C1CC2(CCN(c3cc(Oc4cnc5[nH]ccc5c4)c(C(=O)NS(=O)(=O)c4cc([N+](=O)[O-])c(NC[C@H]5CC[C@](C)(O)CC5)c5c4OCCO5)cc3F)CC2)C1 [compound 099, 2-((1H-pyrrolo[2,3-b]pyrid-5-yl)oxy)-5-fluoro-N-((8-((((1r, 4r)-4-hydroxy-4-methylcyclohexyl)methyl)amino)-7-nitro-2,3-dihydrobenzo[b][1,4]dioxan-5-yl)sulfonyl)-4-(2-((S)-2-(2-isopropylphenyl)pyrrolidin-1-yl)-7-azaspiro[3.5]non-7-yl)benzamide]

The next lines start with the molecule.

Row | SMILES | IC50 [nM]
9 | CC(C)c1ccccc1[C@@H]1CCCN1C1CC2(CCN(c3ccc(C(=O)NS(=O)(=O)c4cc([N+](=O)[O-])c(NC[C@H]5CC[C@](C)(O)CC5)c5[nH]cnc45)c(N4CCCOc5nc6[nH]ccc6cc54)c3)CC2)C1 [compound 085, 2-(3,4-dihydro-2H-pyrrolo[3′,2′:5,6]pyridino[2,3-b][1,4]oxazacyclohept-1 (7H)-yl)-N-((7-((((1r,4r)-4-hydroxy-4-methylcyclohexyl)methyl)amino)-6-nitro-1H-benzo[d]imidazol-4-yl)sulfonyl)-4-(2-((S)-2-(2-isopropylphenyl)pyrrolidin-1-yl)-7-azaspiro[3.5]non-7-yl)benzamide] | < 10
10 | CC(C)c1ccccc1[C@@H]1CCCN1C1CC2(CCN(c3ccc(C(=O)NS(=O)(=O)c4cc([N+](=O)[O-])c(NCC5(F)CCN(C(C)C)CC5)c5[nH]cnc45)c(N4CCCOc5nc6[nH]ccc6cc54)c3)CC2)C1 [compound 086, (S)-2-(3,4-dihydro-2H-pyrrolo[3′,2′:5,6]pyridino[2,3-b][1,4]oxazacyclohept-1 (7H)-yl)-N-((7-(((4-fluoro-1-isopropylpiperid-4-yl)methyl)amino)-6-nitro-1H-benzo[d]imidazol-4-yl)sulfonyl)-4-(2-(2-(2-isopropylphenyl)pyrrolidin-1-yl)-7-azaspiro[3.5]non-7-yl)benzamide] | < 10
11 | CC(C)c1ccccc1[C@@H]1CCCN1C1CC2(CCN(c3ccc(C(=O)NS(=O)(=O)c4cc([N+](=O)[O-])c(NCC5(F)CCOCC5)c5[nH]cnc45)c(N4CCOc5nc6[nH]ccc6cc54)c3)CC2)C1 [compound 087, (S)-2-(2,3-dihydropyrrolo[3′,2′:5,6]pyridino[2,3-b][1,4]oxazin-1 (6H)-yl)-N-((7-(((4-fluorotetrahydro-2H-pyran-4-yl)methyl)amino)-6-nitro-1H-benzo[d]imidazol-4-yl)sulfonyl)-4-(2-(2-(2-isopropylphenyl)pyrrolidin-1-yl)-7-azaspiro[3.5]non-7-yl)benzamide] | < 10
12 | COc1ccc(CN2CCN(C3CC4(CCN(c5ccc(C(=O)NS(=O)(=O)c6cc([N+](=O)[O-])c(NC[C@H]7CC[C@](C)(O)CC7)c7[nH]cnc67)c(N6CCOc7nc8[nH]ccc8cc76)c5)CC4)C3)C(c3ccccc3C(C)C)C2)cc1 (stereo partly drawn) [compound 089, 2-(2,3-dihydropyrrolo[3′,2′:5,6]pyridino[2,3-b][1,4]oxazin-1 (6H)-yl)-N-((7-((((1r,4r)-4-hydroxy-4-methylcyclohexyl)methyl)amino)-6-nitro-1H-benzo[d]imidazol-4-yl)sulfonyl)-4-(2-(2-(2-isopropylphenyl)-4-(4-methoxybenzyl)piperazin-1-yl)-7-azaspiro[3.5]non-7-yl)benzamide] | < 10
13 | CC(C)c1ccccc1[C@@H]1CCCN1C1CC2(CCN(c3cc(Oc4cnc5[nH]ccc5c4)c(C(=O)NS(=O)(=O)c4cc([N+](=O)[O-])c(NC[C@H]5CC[C@](C)(O)CC5)c5occc45)cc3F)CC2)C1 [compound 095, 2-((1H-pyrrolo[2,3-b]pyrid-5-yl)oxy)-5-fluoro-N-((7-((((1r, 4r)-4-hydroxy-4-methylcyclohexyl)methyl)amino)-6-nitrobenzofuran-4-yl)sulfonyl)-4-(2-((S)-2-(2-isopropylphenyl)pyrrolidin-1-yl)-7-azaspiro[3.5]non-7-yl)benzamide] | < 10
14 | CC(C)c1ccccc1[C@@H]1CCCN1C1CC2(CCN(c3cc(Oc4cnc5[nH]ccc5c4)c(C(=O)NS(=O)(=O)c4cc([N+](=O)[O-])c(NC[C@H]5CC[C@](C)(O)CC5)c5c4OCO5)cc3F)CC2)C1 [compound 096, 2-((1H-pyrrolo[2,3-b]pyrid-5-yl)oxy)-5-fluoro-N-((7-((((1r, 4r)-4-hydroxy-4-methylcyclohexyl)methyl)amino)-6-nitrobenzo[d][1,3]dioxocyclopent-4-yl)sulfonyl)-4-(2-((S)-2-(2-isopropylphenyl)pyrrolidin-1-yl)-7-azaspiro[3.5]non-7-yl)benzamide] | < 10
15 | CC(C)c1ccccc1[C@@H]1CCCN1C1CC2(CCN(c3cc(Oc4cnc5[nH]ccc5c4)c(C(=O)NS(=O)(=O)c4cc([N+](=O)[O-])c(NC[C@H]5CC[C@](C)(O)CC5)c5scnc45)cc3F)CC2)C1 [compound 098, 2-((1H-pyrrolo[2,3-b]pyrid-5-yl)oxy)-5-fluoro-N-((7-((((1r, 4r)-4-hydroxy-4-methylcyclohexyl)methyl)amino)-6-nitrobenzo[d]thiazol-4-yl)sulfonyl)-4-(2-((S)-2-(2-isopropylphenyl)pyrrolidin-1-yl)-7-azaspiro[3.5]non-7-yl)benzamide] | < 10

Reference: US20250034135A1, “ANTI-APOPTOTIC PROTEIN BCL-2 INHIBITOR, PHARMACEUTICAL COMPOSITION AND USES THEREOF” (HANGZHOU HEALZEN THERAPEUTICS CO., LTD., priority 2021, published 2025)
